Data as given in US8067445B2, “N,N-disubstituted aminoalkylbiphenyl antagonists of prostaglandin D2 receptors” (Panmira Pharmaceuticals, LLC, priority 2008, dated 2011).

Assays:
[1] = biological target: T1, recombinant human CRTH2 receptor (Homo sapiens, UniProt Q9Y5Y4); test: GTPγS binding assay; assay type: biochemical; settings: +HSA (0.2% human serum albumin), 80 nM PGD2, CHO cell membranes; read-out: hDP2 GTPγS μM (+HSA)
T1 construct: expressed in transfected cells
T1 sequence (Q9Y5Y4 1-395): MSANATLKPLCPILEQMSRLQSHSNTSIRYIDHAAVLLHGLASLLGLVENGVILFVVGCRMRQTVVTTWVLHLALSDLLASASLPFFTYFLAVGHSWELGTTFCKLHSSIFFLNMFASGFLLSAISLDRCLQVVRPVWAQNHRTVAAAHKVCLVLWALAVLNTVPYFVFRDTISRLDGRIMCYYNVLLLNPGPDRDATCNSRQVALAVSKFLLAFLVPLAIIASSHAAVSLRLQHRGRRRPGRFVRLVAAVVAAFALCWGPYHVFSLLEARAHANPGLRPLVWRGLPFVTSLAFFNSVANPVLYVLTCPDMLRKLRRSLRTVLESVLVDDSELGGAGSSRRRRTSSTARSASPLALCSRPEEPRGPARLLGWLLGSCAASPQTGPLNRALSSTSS
Procedure: The ability of a compound to inhibit binding of GTP to DP2 is assessed via a membrane GTPγS assay. CHO cells stably expressing the recombinant human CRTH2 receptor are resuspended in 10 mM Hepes, 7.4 containing 1 mM DTT, lysed and centrifuged at 75,000×g to pellet the membranes. The membranes are resuspended in 10 mM Hepes, 7.4 containing 1 mM DTT and 10% glycerol. […] The reactions are terminated by rapid filtration through Whatman GF/B glass fibre filter plates. The filter plates are washed 3 times with 1 ml cold Assay Buffer and dried. Scintillant is then added to the plates and the radioactivity retained on the filters is determined on a Packard TopCount (Perkin Elmer). Specific binding is determined as total radioactive binding minus non-specific binding in the absence of the ligand (80 nM PGD2). IC50s were determined using Graphpad prism analysis of drug titration curves.

human DP2 receptor = biological target: T2, human DP2 receptor (Homo sapiens, UniProt Q9Y5Y4); test: DP2/CRTH2 radioligand binding assay ([3H]PGD2); settings: [3H]PGD2 binding, membranes of HEK293 cells expressing human DP2; read-out: hDP2
T2 construct: expressed in transfected cells
T2 sequence (Q9Y5Y4 1-395): T1 sequence (Q9Y5Y4 1-395)
Outline: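 Membranes from HEK293 cells stably expressing recombinant human DP2 incubated 60 min at room temperature with 1 nM [3H]PGD2 and compound in pH 7.4 Hepes/MnCl2/EDTA buffer, ± 0.2% human serum albumin. Bound radioactivity measured after filtration; non-specific binding defined with 10 μM PGD2. IC50 from titration curves.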

human DP1 receptor = biological target: T3, human DP1 receptor (Homo sapiens, UniProt Q13258); test: DP1 radioligand binding assay ([3H]BWA868C, platelet membranes); settings: [3H]BWA868C binding, human platelet membranes; read-out: hDP1
T3 construct: tissue Biological Specialty Corporation; host or cells: human platelet membranes
T3 sequence (Q13258 1-359): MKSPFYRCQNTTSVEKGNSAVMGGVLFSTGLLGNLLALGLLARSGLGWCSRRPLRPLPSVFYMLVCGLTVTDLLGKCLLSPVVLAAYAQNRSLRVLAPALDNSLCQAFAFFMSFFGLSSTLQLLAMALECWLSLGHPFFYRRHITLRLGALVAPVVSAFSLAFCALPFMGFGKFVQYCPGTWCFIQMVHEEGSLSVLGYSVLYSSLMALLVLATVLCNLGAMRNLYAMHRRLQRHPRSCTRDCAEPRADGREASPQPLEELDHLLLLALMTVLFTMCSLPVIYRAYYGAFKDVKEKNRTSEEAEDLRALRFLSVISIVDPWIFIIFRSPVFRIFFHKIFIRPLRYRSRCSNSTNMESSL
Outline: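 Human platelet membranes (20 μg protein/well) incubated 60 min at room temperature with 2 nM [3H]BWA868C and compound in 50 mM Hepes, 10 mM MnCl2, 1 mM EDTA, pH 7.4, ± 0.2% human serum albumin. Bound radioactivity measured after filtration; nonspecific binding defined with 10 μM BWA868C; IC50 from titration curves.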

IC50 [1] [µM] | IC50 (human DP2 receptor) [nM] | IC50 (human DP1 receptor) [nM] | Compound
< 0.3 | < 300 | 1000 to 30000 | CCN(Cc1cc(C(F)(F)F)ccc1-c1ccc(OC)c(CC(=O)O)c1)C(=O)OCc1ccccc1 [Compound 1-107, {2′-[(Benzyloxycarbonyl-ethyl-amino)-methyl]-4-methoxy-4′-trifluoromethyl-biphenyl-3-yl}-acetic acid]
< 0.3 | < 300 | 1000 to 30000 | CCN(Cc1cc(C(F)(F)F)ccc1-c1cc(CC(=O)O)ccc1OC)C(=O)C[S+]([O-])c1ccccc1 (stereo not drawn) [Compound 1-119, (2′-{[(2-Benzenesulfinyl-acetyl)-ethyl-amino]-methyl}-6-methoxy-4′-trifluoromethyl-biphenyl-3-yl)-acetic acid]
< 0.3 | < 300 | 1000 to 30000 | CCN(Cc1cc(C(F)(F)F)ccc1-c1cc(CC(=O)O)ccc1OC)C(=O)Nc1ccccc1 [Compound 1-121, [2′-(1-Ethyl-3-phenyl-ureidomethyl)-6-methoxy-4′-trifluoromethyl-biphenyl-3-yl]-acetic acid]
< 0.3 | < 300 | 1000 to 30000 | CCN(Cc1cc(C(F)(F)F)ccc1-c1cc(CC(=O)O)ccc1OC)/C(=N/C#N)NCC1CCCCC1 [Compound 1-112, [2′-(N′-Cyano-N″-cyclohexylmethyl-N-ethyl-guanidinomethyl)-6-methoxy-4′-trifluoromethyl-biphenyl-3-yl]-acetic acid]
< 0.3 | < 300 | 1000 to 30000 | COc1ccc(CC(=O)O)cc1-c1ccc(C(F)(F)F)cc1CN(Cc1ccccc1)C(C)=O [Compound 1-19, {2′-[(Acetyl-benzyl-amino)-methyl]-6-methoxy-4′-trifluoromethyl-biphenyl-3-yl}-acetic acid]
1 to 30 | < 300 | 300 to 1000 | CCN(Cc1cccc(OC)c1-c1cccc(CC(=O)O)c1)C(=O)OCc1ccccc1 [Compound 1-122, {2′-[(Benzyloxycarbonyl-ethyl-amino)-methyl]-6′-methoxy-biphenyl-3-yl}-acetic acid]
1 to 30 | < 300 | 1000 to 30000 | CCN(Cc1cc(C(F)(F)F)ccc1-c1cc(CC(=O)O)ccc1OC)S(=O)(=O)c1ccc(Cl)cc1 [Compound 1-100, (2′-{[(4-Chloro-benzenesulfonyl)-ethyl-amino]-methyl}-6-methoxy-4′-trifluoromethyl-biphenyl-3-yl)-acetic acid]
< 0.3 | < 300 | 1000 to 30000 | CCN(Cc1cc(C(F)(F)F)ccc1-c1cc(CC(=O)O)ccc1OC)C(=O)Nc1ccccc1Br [Compound 1-47, {2′-[3-(2-Bromo-phenyl)-1-ethyl-ureidomethyl]-6-methoxy-4′-trifluoromethyl-biphenyl-3-yl}-acetic acid]
< 0.3 | < 300 | 300 to 1000 | CCN(Cc1cc(C(F)(F)F)ccc1-c1ccc(F)c(CC(=O)O)c1)C(=O)OCc1ccccc1 [Compound 1-127, {2′-[(Benzyloxycarbonyl-ethyl-amino)-methyl]-4-fluoro-4′-trifluoromethyl-biphenyl-3-yl}-acetic acid]
< 0.3 | < 300 | 1000 to 30000 | CCN(Cc1cc(C(F)(F)F)ccc1-c1cc(CC(=O)O)ccc1OC)/C(=N/C#N)NCc1ccc(OC)cc1 [Compound 1-114, {2′-[N′-Cyano-N-ethyl-N″-(4-methoxy-benzyl)-guanidinomethyl]-6-methoxy-4′-trifluoromethyl-biphenyl-3-yl}-acetic acid]
< 0.3 | < 300 | 1000 to 30000 | CCN(Cc1cc(C(F)(F)F)ccc1-c1cc(CC(=O)O)ccc1OCC1CC1)C(=O)OCc1ccccc1 [Compound 1-130]
< 0.3 | < 300 | 1000 to 30000 | COC(=O)N(Cc1ccccc1)Cc1cc(C(F)(F)F)ccc1-c1cc(CC(=O)O)ccc1OC [Compound 1-24, {2′-[(Benzyl-methoxycarbonyl-amino)-methyl]-6-methoxy-4′-trifluoromethyl-biphenyl-3-yl}-acetic acid]
< 0.3 | < 300 | 1000 to 30000 | COc1ccc(CC(=O)O)cc1-c1ccc(C(F)(F)F)cc1CN(C(C)=O)[C@H]1CCc2ccccc21 [Compound 1-14, {2′-[((S)-Acetyl-indan-1-yl-amino)-methyl]-6-methoxy-4′-trifluoromethyl-biphenyl-3-yl}-acetic acid]
< 0.3 | < 300 | 1000 to 30000 | CCN(Cc1cc(C(F)(F)F)ccc1-c1cc(CC(=O)O)ccc1OC)/C(=N/C#N)NCC(C)(C)C [Compound 1-113, {2′-[N′-Cyano-N″-(2,2-dimethyl-propyl)-N-ethyl-guanidinomethyl]-6-methoxy-4′-trifluoromethyl-biphenyl-3-yl}-acetic acid]
< 0.3 | < 300 | 1000 to 30000 | CCN(Cc1cc(C(F)(F)F)ccc1-c1cc(CC(=O)O)cc(C(F)(F)F)c1)C(=O)OCc1ccccc1 [Compound 1-109, {2′-[(Benzyloxycarbonyl-ethyl-amino)-methyl]-5,4′-bis-trifluoromethyl-biphenyl-3-yl}-acetic acid]
< 0.3 | < 300 | 1000 to 30000 | CCN(Cc1cc(C(F)(F)F)ccc1-c1cc(C(C)C(=O)O)ccc1OC)C(=O)OCc1ccccc1 (stereo not drawn) [Compound 1-98, 2-{2′-[(Benzyloxycarbonyl-ethyl-amino)-methyl]-6-methoxy-4′-trifluoromethyl-biphenyl-3-yl}-propionic acid]
0.3 to 1 | 300 to 1000 | 1000 to 30000 | COc1ccc(CC(=O)O)cc1-c1ccc(C(F)(F)F)cc1CN(C(C)=O)c1ccccc1 [Compound 1-18, {2′-[(Acetyl-phenyl-amino)-methyl]-6-methoxy-4′-trifluoromethyl-biphenyl-3-yl}-acetic acid]
0.3 to 1 | < 300 | 300 to 1000 | CCN(Cc1cccc(OC)c1-c1cccc(CC(=O)O)c1)C(=O)OCc1cc(F)cc(F)c1 [Compound 1-123, (2′-{[(3,5-Difluoro-benzyloxycarbonyl)-ethyl-amino]-methyl}-6′-methoxy-biphenyl-3-yl)-acetic acid]
< 0.3 | < 300 | 1000 to 30000 | COc1ccc(CC(=O)O)cc1-c1ccc(C(F)(F)F)cc1CN(CC(C)(C)C)C(C)=O [Compound 1-3, (2′-{[Acetyl-(2,2-dimethyl-propyl)-amino]-methyl}-6-methoxy-4′-trifluoromethyl-biphenyl-3-yl)-acetic acid]
0.3 to 1 | < 300 | 300 to 1000 | CCN(Cc1cc(C(F)(F)F)ccc1-c1ccc(Cl)c(CC(=O)O)c1)C(=O)OCc1ccccc1 [Compound 1-125, {2′-[(Benzyloxycarbonyl-ethyl-amino)-methyl]-4-chloro-4′-trifluoromethyl-biphenyl-3-yl}-acetic acid]
< 0.3 | < 300 | 1000 to 30000 | CCN(Cc1cc(C(F)(F)F)ccc1-c1cc(C(C)C(=O)O)ccc1OC)C(C)=O (stereo not drawn) [Compound 1-21, 2-{2′-[(Acetyl-ethyl-amino)-methyl]-6-methoxy-4′-trifluoromethyl-biphenyl-3-yl}-propionic acid]
< 0.3 | < 300 | 1000 to 30000 | CCN(Cc1cc(C(F)(F)F)ccc1-c1cc(CC(=O)O)ccc1OC)C(=O)N1CCCC1 [Compound 1-97, (2′-{[Ethyl-(pyrrolidine-1-carbonyl)-amino]-methyl}-6-methoxy-4′-trifluoromethyl-biphenyl-3-yl)-acetic acid]
